Where a name gives a salt, the structure may show the parent alone.
What was measured:
human α-thrombin = human α-thrombin (Homo sapiens (Human), UniProt P00734); assay: Enzymatic Assay for Thrombin (Boc-VPR-AMC); assay type: biochemical
MASP-2 CCP2-SP = MASP-2 CCP2-SP (Homo sapiens (Human), UniProt O00187); assay: MASP-2 co-crystallization, X-ray crystallography and structure analysis (H-bonds, van der Waals contacts); set-up: van der Waals contact distance, MASP-2 HIS 483 atom CD2 / van der Waals contact distance, MASP-2 HIS 483 atom NE2 / van der Waals contact distance, SER 654 C to compound atom / van der Waals contact distance, SER 654 O to compound atom / van der Waals contact distance, TRP 655 C to compound atom / van der Waals contact distance, MASP-2 GLY 528 atom CA / van der Waals contact distance TRP 655 atom CZ3 / van der Waals contact distance TRP 655 atom N / van der Waals contact distance TRP 655 atom CE3 / van der Waals contact distance GLY 656 atom C / van der Waals contact distance GLY 656 atom CA / van der Waals contact distance GLY 656 atom O / van der Waals contact distance, MASP-2 TYR 607 atom CD1 / van der Waals contact distance, MASP-2 PRO 606 atom O / d(C3,CA1) / d(CA1,N1)2 / d(H4,O1) / d(H4,O2) / d(O1,O2) / d(CA1,O2) / d(CA6,O1) / d(CA6,O2) / d(CA1,C5) / d(O2,H3) / d(N2,C2) / d(CA5,N2) / d(N2,C4) / d(N2,C6) / d(N2,CA3) / d(N2,O3) / d(O4,H2): unit not given beside the values; settings: for van der Waals contact distance, MASP-2 amino acid atom to compound atom: ARG 630;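 on Ligand-pharmacophore element distance, pharmacophore element C2: distance from averaged pharmacophore element to bound ligand; missing value means element absent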;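 on Ligand-pharmacophore element distance, pharmacophore element C3: distance from averaged pharmacophore element to bound ligand; missing value means element absent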;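 on Ligand-pharmacophore element distance, pharmacophore element C4: distance from averaged pharmacophore element to bound ligand; missing value means element absent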;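 on Ligand-pharmacophore element distance, pharmacophore element C5: distance from averaged pharmacophore element to bound ligand; missing value means element absent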
Method in brief: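 Inhibitor complexes were obtained by soaking crystals of E. coli-expressed human MASP-2 CCP2-SP constructs, then flash-cooling in liquid nitrogen. Structures solved by molecular replacement (1Q3X search model) from synchrotron diffraction; where several poses existed, only one was analyzed, and nonbonded contacts listed can include H-bonds.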

MASP-2 (CCP1-CCP2-SP) = MASP-2 (CCP1-CCP2-SP) (Homo sapiens (Human), UniProt O00187); assay: Enzymatic Assay for MASP-2 (fluorogenic substrate); assay type: biochemical
Lectin Pathway = Lectin Pathway Activation Assay in Human Serum (mannan-coated ELISA, C3c detection); assay type: biochemical; settings: 1% human serum
Method: Microtiter ELISA plate was coated with mannan from Saccharomyces cerevisiae (Sigma-Aldrich, M7504) for overnight at 4° C. in coating buffer [15 mM Na2CO3, 35 mM NaHCO3].

[1] = Table A5-1 pharmacophore: distance between elements, S2/S1 region
[2] = Table A5-2 pharmacophore distance, S3/S4 region
[3] = Table A7-1, between pharmacophore elements of the bound compound
[4] = Table A7-2, between pharmacophore elements of the bound compound
[5] = Table A8-6, nearest protein atom in cell to the left

MASP-2 CCP2-SP, sequence (O00187 445-686): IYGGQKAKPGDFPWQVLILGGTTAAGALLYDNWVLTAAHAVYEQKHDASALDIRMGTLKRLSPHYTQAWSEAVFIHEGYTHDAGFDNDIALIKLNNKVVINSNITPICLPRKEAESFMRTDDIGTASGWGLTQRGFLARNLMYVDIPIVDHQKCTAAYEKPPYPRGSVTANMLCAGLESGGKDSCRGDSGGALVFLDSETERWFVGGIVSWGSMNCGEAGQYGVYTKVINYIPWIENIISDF
MASP-2 CCP2-SP, sequence (O00187 364-432 partner): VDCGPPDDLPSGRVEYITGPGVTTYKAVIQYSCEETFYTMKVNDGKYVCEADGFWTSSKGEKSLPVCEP
MASP-2 (CCP1-CCP2-SP), sequence (O00187 445-686): as the sequence (O00187 445-686) above

## C[C@H](NC(=O)[C@H](N)CCc1cc(Cl)cc(Cl)c1)C(=O)NCc1ccc(C(=N)N)cc1 [compound 1118]
Human α-thrombin
  Ki: < 500 nM
MASP-2 CCP2-SP; Table A1 (H-Bonds), GLY 656 N
  H-bond distance to MASP-2 GLY 656 atom N: 3.07
MASP-2 CCP2-SP; Table A1 (H-Bonds), GLY 656 O
  H-bond distance to MASP-2 GLY 656 atom O: 2.77
MASP-2 CCP2-SP; Table A1 (H-Bonds), SER 628 OG
  H-bond distance to MASP-2 SER 628 atom OG: 3.18
MASP-2 CCP2-SP; Table A1 (H-Bonds), SER 654 O
  H-bond distance to MASP-2 SER 654 atom O: 2.88
MASP-2 CCP2-SP; Table A1 (H-Bonds), SER 657 O
  H-bond distance to MASP-2 SER 657 atom O: 2.93
MASP-2 CCP2-SP; Table A2-1
  van der Waals contact distance, MASP-2 HIS 483 atom CD2: 3.64
MASP-2 CCP2-SP; Table A2-3
  van der Waals contact distance, MASP-2 PHE 529 atom CD1: 3.52
MASP-2 CCP2-SP; Table A2-4
  van der Waals contact distance, MASP-2 TYR 607 atom CA: 3.79
MASP-2 CCP2-SP; Table A2-9, AA atoms CG, CZ
  van der Waals contact distance, MASP-2 amino acid atom to compound atom: 3.85
MASP-2 CCP2-SP; Table A2-9 second part, AA atoms N, NE, NH1
  van der Waals contact distance, MASP-2 amino acid atom to compound atom: 3.67
MASP-2 CCP2-SP; Table A2-11
  van der Waals contact distance, VAL 653 CG1 to compound atom: 3.86
MASP-2 CCP2-SP; Table A2-13, MASP-2 GLY 656 C
  van der Waals contact distance GLY 656 atom C: 3.63
MASP-2 CCP2-SP; Table A2-13, MASP-2 TRP 655 CZ3
  van der Waals contact distance TRP 655 atom CZ3: 3.69
MASP-2 CCP2-SP; Table A2-13, MASP-2 TRP 655 N
  van der Waals contact distance TRP 655 atom N: 3.76
MASP-2 CCP2-SP; Table A2-14, MASP-2 SER 657 C, columns c12-c13 (inferred)
  van der Waals contact distance SER 657 atom C: 3.8
MASP-2 CCP2-SP; Table A4-1, element C2
  Ligand-pharmacophore element distance, pharmacophore element C2: 0
MASP-2 CCP2-SP; Table A4-1, element C3
  Ligand-pharmacophore element distance, pharmacophore element C3: 0
MASP-2 CCP2-SP; Table A4-1, element C4
  Ligand-pharmacophore element distance, pharmacophore element C4: 2.54
MASP-2 CCP2-SP; Table A4-1, element C5
  Ligand-pharmacophore element distance, pharmacophore element C5: 0
MASP-2 CCP2-SP; Table A4-1, element C6
  Ligand-pharmacophore element distance, pharmacophore element C6: 1.17
MASP-2 CCP2-SP; Table A4-1, element C7
  Ligand-pharmacophore element distance, pharmacophore element C7: 0
MASP-2 CCP2-SP; Table A4-1, element CA1
  Ligand-pharmacophore element distance, pharmacophore element CA1: 0.43
MASP-2 CCP2-SP; Table A4-1, element CA2
  Ligand-pharmacophore element distance, pharmacophore element CA2: 0.69
MASP-2 CCP2-SP; Table A4-1, element CA3
  Ligand-pharmacophore element distance, pharmacophore element CA3: 0
MASP-2 CCP2-SP; Table A4-1, element CA4
  Ligand-pharmacophore element distance, pharmacophore element CA4: 0
MASP-2 CCP2-SP; Table A4-1, element CA5
  Ligand-pharmacophore element distance, pharmacophore element CA5: 0
MASP-2 CCP2-SP; Table A4-1, element CA6
  Ligand-pharmacophore element distance, pharmacophore element CA6: 0
MASP-2 CCP2-SP; [1]
  d(CA1,N1): 3.55
  d(CA1,O1): 4.35
  d(CA1,O2): 4.33
  d(H4,O1): 4.85
  d(H4,O2): 4.52
  d(O1,O2): 3.25
MASP-2 CCP2-SP; [2]
  d(N2,C4): 7.40
  d(N2,C4)4: 7.40
  d(N2,C6): 8.27
  d(N2,CA2): 5.84
  d(O2,H3): 5.85
  d(O2,N2): 2.67
MASP-2 CCP2-SP; Table A6-1 pharmacophore angle
  a(CA1, O1, O2): 111.55
  a(O1, O2, H4): 139.63
MASP-2 CCP2-SP; Table A6-1 pharmacophore angle, all compounds with protonatable center N1 except Methyl-amino-pyridine
  A(N1, CA1, O1) a): 162.73
MASP-2 CCP2-SP; Table A6-2 pharmacophore angle
  a(O1, O2, H3): 152.79
  a(O1, O2, N2): 137.47
  a(O2, N2, C4): 162.84
  a(O2, N2, C4) 2: 125.21
  a(O2, N2, C6): 88.59
  a(O2, N2, CA2): 154.60
MASP-2 CCP2-SP; [3]
  Pharmacophore torsion angle a(H4, O1, O2, H3): 38.74
  Pharmacophore torsion angle a(H4, O1, O2, N2): 128.20
  Pharmacophore torsion angle a(N1, CA1, O2, H4): −132.91
  Pharmacophore torsion angle a(O1, H4, O2, CA1): −65.17
MASP-2 CCP2-SP; [4]
  Pharmacophore torsion angle a(O1, O2, N2, C6): 150.07
  Pharmacophore torsion angle a(O1, O2, N2, CA2): 145.00
MASP-2 CCP2-SP; Table A8-6, 6th residue column, nearest protein atom in cell to the left
  Pharmacophore protein distance to MET_658 (first MET_658 column): 1.45
MASP-2 CCP2-SP; Table A8-6, 9th residue column, nearest protein atom in cell to the left
  Pharmacophore protein distance to MET_658 (second MET_658 column): 3.28
MASP-2 CCP2-SP; [5]
  Pharmacophore protein distance to GLY_528: 3.82
  Pharmacophore protein distance to PHE_529: 3.01
  Pharmacophore protein distance to PRO_608: 4.83
  Pharmacophore protein distance to SER_611: 3.12
MASP-2 CCP2-SP; Table A8-6, pharmacophore elements C6, CA3, O3, H1, nearest protein atom in cell to the left
  Pharmacophore protein distance to TRP_655: 3.71
MASP-2 (CCP1-CCP2-SP)
  Ki: < 500 nM

## COc1cc(C[C@@H]2CN[C@@H](C(=O)N[C@@H](C)C(=O)NCc3cc(Cl)ccc3-n3cnnn3)C2)cc(OC)c1 [compound 1419, (2R,4S)—N—((S)-1-((5-Chloro-2-(1H-tetrazol-1-yl)benzyl)amino)-1-oxopropan-2-yl)-4-(3,5-dimethoxybenzyl)pyrrolidine-2-carboxamide Trifluoroacetate salt]
Human α-thrombin
  Ki: < 500 nM
MASP-2 (CCP1-CCP2-SP)
  Ki: < 500 nM
Lectin Pathway
  IC50: < 50 nM

Reference: patent US12195427B2, “MASP-2 inhibitors and methods of use” (priority 2018, dated 2025)
